Laboratory results as given in patent US12492380B2, “Methods for the production of hepatocytes” (FUJIFILM Cellular Dynamics, Inc., priority 2019, dated 2025).
pIC50: −log10 of the molar value.

Key:
[1] = test system: iPSCs; test: CHIR99021 preconditioning/supplementation during iPSC to hepatocyte differentiation; format: cell-based, human; settings: supplementation midway through differentiation
Experimental: iPS cells were maintained on […] ® in E8 Medium under hypoxic conditions (5% 02), using 0.5 mM EDTA for splitting approximately every 4-5 days. The iPSC cultures were acclimatized to hypoxia for around 10 passages before the onset of hepatocyte differentiation. Starting iPS cell cultures were seeded at 15-20 k/cm^2 on […] ®-coated 6-well plates or T150 flasks. Two days after seeding, media was changed to preconditioning medium (PCM) and fed daily for two-three days. Endoderm induction was performed by placing the cells in media containing activin (DE Day 0 Medium, also referred to as T0 medium). On days 1-2, media was changed to DE Day 1-2 Medium (also referred to as T1-T2 medium) containing activin, along with low concentrations of BMP4, VEGF and FGF2 for the next two days. From day 3-9, media was changed to DE Day 3-9 (also referred to as T3-T6 medium) with the base medium SFD, supplemented with Activin, BMP4 and VEGF. On day 10, a sampling of the culture was performed for staining the percentage of definitive endoderm cells. […] Surface staining was performed to quantify the levels of Tra181, CXCR4, CD117 by flow cytometry. […]
Alternately, the cell individualized cell suspension was placed in media for aggregate formation. […] Intracellular staining to quantify the levels of AAT, ASGPR, Albumin, and matched isotypes was performed via flow cytometry. […]

[2] = target: T1, ZAP-70 (Homo sapiens, UniProt P43403); settings: cited from earlier work
T1 sequence (P43403 1-619): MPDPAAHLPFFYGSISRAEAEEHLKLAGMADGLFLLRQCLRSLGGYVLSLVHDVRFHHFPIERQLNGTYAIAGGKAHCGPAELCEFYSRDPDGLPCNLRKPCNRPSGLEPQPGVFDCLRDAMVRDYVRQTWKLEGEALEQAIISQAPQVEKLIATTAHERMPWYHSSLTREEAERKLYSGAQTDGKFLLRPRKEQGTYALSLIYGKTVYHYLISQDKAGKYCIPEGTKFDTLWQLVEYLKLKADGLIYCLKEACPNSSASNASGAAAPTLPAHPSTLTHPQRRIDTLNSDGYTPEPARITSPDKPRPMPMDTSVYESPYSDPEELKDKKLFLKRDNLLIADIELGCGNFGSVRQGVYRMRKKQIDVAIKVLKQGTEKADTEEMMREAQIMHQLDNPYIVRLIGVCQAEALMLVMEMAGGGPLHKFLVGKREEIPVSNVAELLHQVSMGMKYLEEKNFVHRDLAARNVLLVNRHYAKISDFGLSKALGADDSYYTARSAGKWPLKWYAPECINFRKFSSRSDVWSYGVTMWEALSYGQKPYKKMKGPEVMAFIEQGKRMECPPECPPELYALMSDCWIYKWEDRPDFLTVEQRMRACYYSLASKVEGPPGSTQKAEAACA

[3] = target: type I TGF-β receptors; settings: direct inhibition, unrelated to Src signaling; cited from earlier work
[4] = test system: iPSC-derived hepatocytes; test: Stage 3 maturation of thawed end of Stage 2 hepatocytes (morphology, AAT and albumin by flow cytometry); format: cell-based, human
Experimental: Thawing Cryopreserved hepatocytes at Stage 2 of differentiation and maturation to Stage 3 hepatocytes post thaw: Cryopreserved hepatocytes at the end of stage 2 were thawed in Stage 3 media. The cells were plated on Collagen I coated plates without spinning in the presence of a rock inhibitor. The media was gently changed at the end of 24 hours post plating. The maturation media contained SB/DAPT or Src kinase inhibitors and the cells were allowed to differentiate to additional 8-10 days with media exchanges every 48 hrs. The end stage cells were analyzed for hepatocyte morphology and the presence of AAT and albumin expression quantified by flow cytometry.
Generation of Liver organoids: Aggregates consisting of hepatocytes and other liver relevant cell types—specifically macrophages, MSC, and endothelial cells—designed to mimic liver organoid culture were established and maintained for 5-10 days. Aggregates were established in hepatocyte Stage 3 media (Table 2) supplemented with 1 μM of H1152, with the non-hepatocyte cells undergoing adaptation to Stage 3 media prior to initiation of co-cultures. For co-culture initiation, end of Stage 1 cells Hepatocytes were recovered from cryopreservation and aggregated at 500,000 cells/mL in Stage 2 media (Table 2) supplemented with 1 μM of rho kinase (rock) inhibitor H1152. […]

SMILES	expansion of cells during hepatoblast to hepatocyte transition [1]	pIC50 [2]	pIC50 [3]	maturation of hepatocytes ([4]; PP1 substituted for SB431542/DAPT in Stage 3 maturation media, post thaw, preliminary data)	maturation of hepatocytes in co-culture ([4]; in the presence of MSCs, macrophages and endothelial cells)
Cc1c[nH]c(-c2cnc(NCCNc3ccc(C#N)cn3)nc2-c2ccc(Cl)cc2Cl)n1 [CHIR99021]	effective in promoting the expansion of cells				
Cc1ccc(-c2nn(C(C)(C)C)c3ncnc(N)c23)cc1 [PP1]		≤ 6.22	7.30	facilitated the maturation of hepatocytes	enhances the maturation of Hepatocytes
